# Measured values from patent US8937065B2, “Compositions and methods for modulating a kinase” (Clevexel Pharma, priority 2011, dated 2015).
# Like-named read-outs stand apart in the source and are kept apart here.
# Assays:
# [1] = test system: Daudi cells; experiment: Daudi CTG assay (Daudi proliferation, 72 hr, Cell Titer Glo); format: cell-based; settings: Homo sapiens
# Experimental: The compounds of the invention were tested on Daudi proliferation according to the procedure in Example 4 (for Daudi cells): Proliferation of RS4; 11, Ramos, Namalwa, RL, Molt-4 and Daudi cells. The compounds of the invention were tested on Daudi proliferation (72 hr), 3 fold dilution, and 9 points in duplicates. The top concentration for compounds of the invention was 10 uM; reference compound 7A top concentration was 10 uM; and Paclitaxel was 500 nM. Cell viability was determined using the Cell Titer Glo (CTG) reagent and detected by EnVision. EC50s were calculated by Prism 5.
# The CellTiter-Glo™ Luminescent Cell Viability Assay uses ATP, a required co-factor of the luciferase reaction, as an indicator of metabolically active cells. The enzyme luciferase acts on luciferin in the presence of Mg^2+and ATP to produce oxyluciferin and to release energy in the form of luminescence. Since the luciferase reaction requires ATP, the luminescence produced is proportional to the amount of ATP present, an indicator of cellular metabolic activity.
# [2] = test system: RL cells; experiment: Proliferation of RL cells (Cell Titer-Glo); settings: Homo sapiens, B cells, outcome-based, read-out: IC50 Proliferation RL cells (Non-Hodjkin lymphoma)
# [3] = test system: Molt-4 cells; experiment: Proliferation of Molt-4 cells (Cell Titer-Glo); settings: Homo sapiens, T cells, outcome-based, read-out: IC50 Proliferation Molt-4 cells (ALL)
# [4] = test system: Caco-2; experiment: Caco-2 permeability and efflux; format: in vitro ADME
# [5] = test system: RS4; 11 cells; experiment: Proliferation of RS4; 11 cells (Cell Titer-Glo); settings: Homo sapiens, B cells, outcome-based, read-out: IC50 Proliferation RS4, 11 cells (ALL)
# Experimental: Growth inhibitory activity against the human tumor cell lines, RS4; 11 and Daudi was determined using Promega's Cell Titer-Glo® assay. The human tumor cells were placed in a 96-well microculture plate (Costar white, flat bottom #3917) in a total volume of 90 μL/well. After 24 hours of incubation in a humidified incubator at 37° C. with 5% CO2 and 95% air, […] serially diluted test agents in growth medium were added to each well. After 96 total hours of culture in a CO2 incubator, the plated cells and Cell Titer-Glo® (Promega # G7571) reagents were brought to room temperature to equilibrate for 30 minutes. 100 μL of Cell Titer-Glo® reagent was added to each well. The plate was shaken for 2 minutes and then left to equilibrate for 10 minutes before reading luminescence on the Tecan GENios microplate reader.
# Percent inhibition of cell growth was calculated relative to untreated control wells. All tests were performed in duplicate at each concentration level. The IC50 value for the test agents was estimated using Prism 3.03 by curve-fitting the data using the following four parameter-logistic equation: […]
# [6] = test system: JAK2 pathway, TF-1 cells; experiment: JAK2/STAT5-irf1-bla TF1 screen; settings: Homo sapiens, read-out: IC50 Cell-based selectivity: JAK2 pathway TF-1 cells
# Experimental: Mechanism-based inhibition assays using compound 7A (Table 1) were performed using GeneBLAzer® Technology (Invitrogen Corporation), according to manufacturer specifications. Briefly, GeneBLAzer® Technology uses a mammalian-optimized Beta-lactamase reporter gene (bla) combined with a FRET-enabled substrate to provide reliable and sensitive detection in intact cells. Cells were loaded with an engineered fluorescent substrate containing two fluorophores, coumarin and fluorescein. Without bla expression, the substrate molecule remains intact. In this state, excitation of the coumarin results in fluorescence resonance energy transfer to the fluorescein moiety and emission of green light. But when bla is expressed, the substrate is cleaved, the fluorophores are separated, and energy transfer is disrupted. Excitation of the coumarin in the presence of Beta-lactamase activity results in a blue fluorescence signal. […]
# General Activator Assay Protocol • 1. […] The assay, plate was read on a fluorescence plate reader (Tecan Safire^2) and the data is analyzed.
# irf1-bla TF1 cells were thawed and resuspended in Assay Media (OPTI-MEM, 0.5% dialyzed FBS, 0.1 mM NEAA, 1 mM Sodium Pyruvate, 100 U/mL/100 μg/mL Pen/Strep) to a concentration of 1,562,500 cells/mL. […] The plate is read on a fluorescence plate reader.
# [7] = test system: Ramos cells; experiment: Proliferation of Ramos cells (Cell Titer-Glo); settings: Homo sapiens, B cells, outcome-based, read-out: IC50 Proliferation Ramos cells (Burkitt's lymphoma)
compound,measurement,setting,value
"O=C(CN1CCOCC1)Nc1cccc(-c2nc(-c3c[nH]c(C(=O)N4CCCC4)c3)cs2)c1 [7A, 2-morpholino-N-(3-(4-(5-(pyrrolidine-1-carbonyl)-1H-pyrrol-3-yl)thiazol-2-yl)phenyl)acetamide]",IC50,"[1]; Daudi, read-out: Daudi CTG assay IC50, historical data",122 nM
same,IC50,"[1]; Daudi proliferation 72 hr, control compounds, read-out: Daudi CTG assay control IC50",102 nM
same,IC50,[2],26000 nM
same,IC50,[3],35000 nM
same,Caco-2 Eflux,[4]; Caco-2,no
same,Caco-2 Papp A-B (×10^6/cm · s^−1),"[4]; Caco-2, A-B",24 ×10^6/cm · s^−1
same,IC50,[5],500 nM
same,IC50,[6],49500 nM
same,IC50,[7],534 nM
